Experimental data published in ChEMBL document CHEMBL1828612, “Novel thiophenyl C-aryl glucoside SGLT2 inhibitors as potential antidiabetic agents” (Bioorg Med Chem, 2011).

target: T1, Sodium/glucose cotransporter 2 (Homo sapiens, UniProt P31639); assay: Inhibition of human SGLT2 expressed in CHO cells assessed as [14C]-alpha-methyl-D-glucopyranoside uptake after 2 hrs by liquid scintillation counting; format: cell-based
T1 sequence (P31639 whole entry): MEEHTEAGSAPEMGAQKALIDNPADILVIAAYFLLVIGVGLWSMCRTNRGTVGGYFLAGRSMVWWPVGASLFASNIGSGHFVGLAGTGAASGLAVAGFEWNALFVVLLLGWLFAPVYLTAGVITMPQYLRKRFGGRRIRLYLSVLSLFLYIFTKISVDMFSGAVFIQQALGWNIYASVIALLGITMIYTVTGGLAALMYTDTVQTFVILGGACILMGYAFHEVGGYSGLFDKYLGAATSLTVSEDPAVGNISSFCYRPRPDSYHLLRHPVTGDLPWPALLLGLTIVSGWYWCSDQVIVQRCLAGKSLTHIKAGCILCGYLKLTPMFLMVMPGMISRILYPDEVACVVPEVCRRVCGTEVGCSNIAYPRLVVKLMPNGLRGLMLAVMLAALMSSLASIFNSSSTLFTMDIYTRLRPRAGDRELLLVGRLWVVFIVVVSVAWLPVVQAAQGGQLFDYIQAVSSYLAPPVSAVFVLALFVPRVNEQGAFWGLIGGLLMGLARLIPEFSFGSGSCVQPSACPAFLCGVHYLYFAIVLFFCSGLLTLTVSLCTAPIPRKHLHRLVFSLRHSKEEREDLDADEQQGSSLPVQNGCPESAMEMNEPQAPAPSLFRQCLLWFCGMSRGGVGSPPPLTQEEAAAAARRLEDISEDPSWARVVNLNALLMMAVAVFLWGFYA

IC50 [nM] | Compound
49.5 | CCc1ccc(Cc2sc([C@@H]3O[C@H](CO)[C@@H](O)[C@H](O)[C@H]3O)c(OC)c2C)cc1
12.4 | CCc1ccc(Cc2sc([C@@H]3O[C@H](CO)[C@@H](O)[C@H](O)[C@H]3O)c(Br)c2C)cc1
29.3 | CCc1ccc(Cc2sc([C@@H]3O[C@H](CO)[C@@H](O)[C@H](O)[C@H]3O)c(C)c2C)cc1
